Results published in patent US12391686B2, “Compounds and uses thereof” (Foghorn Therapeutics Inc., priority 2019, dated 2025).

Experiments:
[1] = molecular target: T1, Nanoluciferase-BRD9 fusion protein (3×FLAG-NLuc-BRD9) in SYO-1 cells (Homo sapiens, UniProt Q9H8M2); assay: SYO1 BRD9 NanoLuc Degradation Assay; type: cell-based; settings: 6 hours; SYO-1 cells expressing 3×FLAG-NLuc-BRD9; top dose 1 μM; read-out: SYO1 BRD9-NanoLuc degradation IC50
T1 construct: expressed in transfected cells; host or cells: SYO-1
T1 sequence (Q9H8M2 1-597): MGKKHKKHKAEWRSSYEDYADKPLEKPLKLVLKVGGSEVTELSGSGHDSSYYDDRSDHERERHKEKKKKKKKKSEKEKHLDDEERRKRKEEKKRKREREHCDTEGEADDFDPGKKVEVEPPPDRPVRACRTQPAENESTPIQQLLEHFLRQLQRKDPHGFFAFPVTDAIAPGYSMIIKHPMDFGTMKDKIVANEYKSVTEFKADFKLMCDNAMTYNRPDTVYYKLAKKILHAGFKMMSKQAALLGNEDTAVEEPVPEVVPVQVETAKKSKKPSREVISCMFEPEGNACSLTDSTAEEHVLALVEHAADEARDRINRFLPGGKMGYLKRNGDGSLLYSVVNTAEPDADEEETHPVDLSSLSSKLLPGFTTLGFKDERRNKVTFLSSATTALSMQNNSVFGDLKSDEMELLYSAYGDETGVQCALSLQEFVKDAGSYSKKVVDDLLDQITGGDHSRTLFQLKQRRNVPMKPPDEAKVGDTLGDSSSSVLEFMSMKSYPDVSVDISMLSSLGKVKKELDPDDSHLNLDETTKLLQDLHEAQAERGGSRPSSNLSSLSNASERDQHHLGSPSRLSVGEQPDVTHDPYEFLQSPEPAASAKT
How it was run: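 NanoLuc signal, read by Nano-Glo luminescence after 6 h compound exposure, gives % inhibition against DMSO-treated cells (high control) and cells given 1 μM of a standard BRD9 degrader (low control). Test compounds ran as 10-point 3-fold series, top 1 μM final, in duplicate on SYO-1 cells stably expressing 3×FLAG-NLuc-BRD9.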

[2] = molecular target: T2, BRD9 bromodomain (Flag-BRD9 P133-K239; Swiss Prot Q9H8M2) (Homo sapiens, UniProt Q9H8M2); assay: BRD9 Bromodomain TR-FRET Competition Binding Assay; settings: competition with biotinylated BRD9 ligand; 90 minutes at room temperature
T2 construct: His-Flag-BRD9 (P133-K239); Swiss Prot Q9H8M2; His6 with TEV site (mgsshhhhhhenlyfq/) (N, cleaved yes); made in house
T2 sequence (Q9H8M2 133-239): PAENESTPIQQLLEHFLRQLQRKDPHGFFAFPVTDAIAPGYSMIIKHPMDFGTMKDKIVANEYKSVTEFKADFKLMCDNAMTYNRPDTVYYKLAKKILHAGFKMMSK
Description: Procedure: His-Flag-BRD9 (P133-K239; Swiss Prot Q9H8M2; SEQ ID NO:1 mgsshhhhhhenlyfq/gdykddddkgslevlfqg/[…] […]) was cloned, expressed, purified, and then treated with TEV protease. Cleaved His tag was removed by purification. The binding of a biotinylated small molecule ligand of BRD9 was assessed via the LANCE® TR-FRET platform (PerkinElmer), and the compounds were assayed for inhibitory activity against this interaction.
Results: A mixture of biotinylated-ligand and SureLight™ Allophycocyanin-Streptavidin (APC-SA, PerkinElmer AD0201) in 50 mM HEPES (pH 7.4), 50 mM NaCl, 1 mM TCEP (pH 7), 0.01% (v/v) Tween-20, 0.01% (w/v) bovine serum albumin was added to a white 384-well PerkinElmer Proxiplate Plus plate. DMSO or 3-fold serially diluted compounds were then added to the Proxiplate followed by addition of Flag-BRD9. After a 10-minute incubation at room temperature, Eu-W1024 anti-FLAG (PerkinElmer, AD0273) was added. The final reaction mixture that contained 3.75 nM biotinylated ligand, 3 nM Flag-BRD9, 7.5 nM SureLight™ Allophycocyanin-Streptavidin, and 0.2 nM Eu-W1024 anti-FLAG was incubated at room temperature for 90 minutes.
The plates were then read on a PerkinElmer Envision plate reader to determine the ratio of emission at 665 nm over 615 nm. […]

SMILES | DC50 [1] [nM] | IC50 [2] [nM]
COc1cc(-c2cn(C)c(=O)c3cnc(NCCOCCOCCNc4cccc5c4C(=O)N(C4CCC(=O)NC4=O)C5=O)cc23)cc(OC)c1CN(C)C (stereo not shown) [Compound D10, 4-[[2-(2-[2-[(5-[4-[(dimethylamino)methyl]-3,5-dimethoxyphenyl]-7-methyl-8-oxo-2,7-naphthyridin-3-yl)amino]ethoxy]ethoxy)ethyl]amino]-2-(2,6-dioxopiperidin-3-yl)isoindole-1,3-dione formic acid] | ≥ 10 | ≥ 10
COc1cc(-c2cn(C)c(=O)c3cnc(NC(=O)CCOCCOCCNc4ccc5c(c4)C(=O)N(C4CCC(=O)NC4=O)C5=O)cc23)cc(OC)c1CN(C)C (stereo not shown) [Compound D14, N-(5-(4-((dimethylamino)methyl)-3,5-dimethoxyphenyl)-7-methyl-8-oxo-7,8-dihydro-2,7-naphthyridin-3-yl)-3-(2-(2-((2-(2,6-dioxopiperidin-3-yl)-1,3-dioxoisoindolin-5-yl)amino)ethoxy)ethoxy)propanamide formic acid] | ≥ 100 | ≥ 10
CNc1cc2c(=O)n(C)cc(-c3cc(OC)c(CN4CCN(C(=O)CCCOc5cccc6c5C(=O)N(C5CCC(=O)NC5=O)C6=O)CC4)c(OC)c3)c2cn1 (stereo not shown) [Compound D17, 4-(4-(4-(2,6-dimethoxy-4-(2-methyl-7-(methylamino)-1-oxo-1,2-dihydro-2,6-naphthyridin-4-yl)benzyl)piperazin-1-yl)-4-oxobutoxy)-2-(2,6-dioxopiperidin-3-yl)isoindoline-1,3-dione formic acid] | < 10 | ≥ 10
COc1cc(-c2cn(C)c(=O)c3cc(NC(=O)CCOCCOCCNc4cccc5c4C(=O)N(C4CCC(=O)NC4=O)C5=O)ncc23)cc(OC)c1CN(C)C (stereo not shown) [Compound D9, N-(8-[4-[(dimethylamino)methyl]-3,5-dimethoxyphenyl]-6-methyl-5-oxo-2,6-naphthyridin-3-yl)-3-[2-(2-[[2-(2,6-dioxopiperidin-3-yl)-1,3-dioxoisoindol-4-yl]amino]ethoxy)ethoxy]propanamide] | ≥ 1000 | ≥ 100
COc1cc(-c2cn(C)c(=O)c3cnc(N(C)CCOCCOCCNc4cccc5c4C(=O)N(C4CCC(=O)NC4=O)C5=O)cc23)cc(OC)c1CN(C)C (stereo not shown) [Compound D31, 4-[10-(5-[4-[(dimethylamino)methyl]-3,5-dimethoxyphenyl]-7-methyl-8-oxo-2,7-naphthyridin-3-yl)-4,7-dioxa-1,10-diazaundecan-1-yl]-2-(2,6-dioxopiperidin-3-yl)isoindole-1,3-dione] | ≥ 100 | ≥ 10
COc1cc(-c2cn(C)c(=O)c3cc(NC(=O)CCOCCOCCNc4ccc5c(c4)C(=O)N(C4CCC(=O)NC4=O)C5=O)ncc23)cc(OC)c1CN(C)C (stereo not shown) [Compound D13, N-(8-[4-[(dimethylamino)methyl]-3,5-dimethoxyphenyl]-6-methyl-5-oxo-2,6-naphthyridin-3-yl)-3-[2-(2-[[2-(2,6-dioxopiperidin-3-yl)-1,3-dioxoisoindol-5-yl]amino]ethoxy)ethoxy]propanamide formic acid] | ≥ 1000 | ≥ 100
COc1cc(-c2cn(C)c(=O)c3cnc(NC(=O)CCOCCOCCNc4cccc5c4C(=O)N(C4CCC(=O)NC4=O)C5=O)cc23)cc(OC)c1CN(C)C (stereo not shown) [Compound D11, N-(5-(4-((dimethylamino)methyl)-3,5-dimethoxyphenyl)-7-methyl-8-oxo-7,8-dihydro-2,7-naphthyridin-3-yl)-3-(2-(2-((2-(2,6-dioxopiperidin-3-yl)-1,3-dioxoisoindolin-4-yl)amino)ethoxy)ethoxy)propanamide formic acid] | ≥ 100 | ≥ 10
COc1cc(-c2cn(C)c(=O)c3cc(NCCCCCCCCNC(=O)COc4cccc5c4C(=O)N(C4CCC(=O)NC4=O)C5=O)ncc23)cc(OC)c1CN(C)C (stereo not shown) [Compound D8, N-[8-[(8-[4-[(dimethylamino)methyl]-3,5-dimethoxyphenyl]-6-methyl-5-oxo-2,6-naphthyridin-3-yl)amino]octyl]-2-[[2-(2,6-dioxopiperidin-3-yl)-1,3-dioxoisoindol-4-yl]oxy]acetamide] | ≥ 10 | ≥ 10

Now from value to compound:

DC50 [1] [nM] | IC50 [2] [nM] | SMILES
< 10 | < 10 | COc1cc(-c2cn(C)c(=O)c3cnc(N(C)C)cc23)cc(OC)c1CN1CCC2(CC1)CN(C(=O)CCCCOc1cccc3c1C(=O)N(C1CCC(=O)NC1=O)C3=O)CCO2 (stereo not shown) [Compound D27, 4-((5-(9-(4-(6-(dimethylamino)-2-methyl-1-oxo-1,2-dihydro-2,7-naphthyridin-4-yl)-2,6-dimethoxybenzyl)-1-oxa-4,9-diazaspiro[5.5]undecan-4-yl)-5-oxopentyl)oxy)-2-(2,6-dioxopiperidin-3-yl)isoindoline-1,3-dione formic acid]
< 10 | < 10 | CNc1cc2c(=O)n(C)cc(-c3cc(OC)c(CN4CCN(C(=O)COc5cccc6c5C(=O)N(C5CCC(=O)NC5=O)C6=O)CC4)c(OC)c3)c2cn1 (stereo not shown) [Compound D29, 4-[2-[4-([2,6-dimethoxy-4-[2-methyl-7-(methylamino)-1-oxo-2,6-naphthyridin-4-yl]phenyl]methyl)piperazin-1-yl]-2-oxoethoxy]-2-(2,6-dioxopiperidin-3-yl)isoindole-1,3-dione]
< 10 | < 10 | COc1cc(-c2cn(C)c(=O)c3cnc(N(C)C)cc23)cc(OC)c1CN1CC(S(=O)(=O)NCCN2CCN(c3ccc4c(c3)C(=O)N(C3CCC(=O)NC3=O)C4=O)CC2)C1 (stereo not shown) [Compound D28, 1-([4-[6-(dimethylamino)-2-methyl-1-oxo-2,7-naphthyridin-4-yl]-2,6-dimethoxyphenyl]methyl)-N-(2-[4-[2-(2,6-dioxopiperidin-3-yl)-1,3-dioxoisoindol-5-yl]piperazin-1-yl]ethyl)azetidine-3-sulfonamide]
< 10 | < 10 | COc1cc(-c2cn(C)c(=O)c3cnc(N(C)C)cc23)cc(OC)c1CN1CCC2(CC1)CN(C(=O)CCCCOc1ccc3c(c1)C(=O)N(C1CCC(=O)NC1=O)C3=O)CCO2 (stereo not shown) [Compound D19, 5-((5-(9-(4-(6-(dimethylamino)-2-methyl-1-oxo-1,2-dihydro-2,7-naphthyridin-4-yl)-2,6-dimethoxybenzyl)-1-oxa-4,9-diazaspiro[5.5]undecan-4-yl)-5-oxopentyl)oxy)-2-(2,6-dioxopiperidin-3-yl)isoindoline-1,3-dione formic acid]
< 10 | < 10 | COc1cc(-c2cn(C)c(=O)c3cnc(N(C)C)cc23)cc(OC)c1CN1CCC(CCN2CCN(c3ccc4c(c3)C(=O)N(C3CCC(=O)NC3=O)C4=O)CC2)CC1 (stereo not shown) [Compound D20, 5-(4-(2-(1-(4-(6-(dimethylamino)-2-methyl-1-oxo-1,2-dihydro-2,7-naphthyridin-4-yl)-2,6-dimethoxybenzyl)piperidin-4-yl)ethyl)piperazin-1-yl)-2-(2,6-dioxopiperidin-3-yl)isoindoline-1,3-dione formic acid]
≥ 100 | < 10 | COc1cc(-c2cn(C)c(=O)c3cnc(N(C)C)cc23)cc(OC)c1CN1CC[C@H]1CN(C)Cc1cccc2c1C(=O)N(C1CCC(=O)NC1=O)C2=O (stereo partly drawn) [Compound D2, 4-(((((S)-1-(4-(6-(dimethylamino)-2-methyl-1-oxo-1,2-dihydro-2,7-naphthyridin-4-yl)-2,6-dimethoxybenzyl)azetidin-2-yl)methyl)(methyl)amino)methyl)-2-(2,6-dioxopiperidin-3-yl)isoindoline-1,3-dione]
